Where a name gives a salt, the structure may show the parent alone. Read-outs that look alike come from different tables or passages of the source.
Tests used:
[1] = biological target: class C enzyme AmpC (Enterobacter cloacae, UniProt P05364); experiment: biochemical; parameters: species or system Enterobacter cloaca
Procedure: (§1) IC50 Determination for the Penem Inhibitor
(§2) β-Lactamase inhibitory activity of the penem inhibitors was determined spectrophotometrically as described by Bush et al., [Bush, K., Macalintal, C., Rasmussen, B. A., Lee, V. and Yang, Y. Antimicrobial Agents and Chemotherapy 1993, 37, 851]. Homogeneously purified class A β-lactamases TEM-1 from E. coli and Imi-1 from Enterobacter cloacae, class B enzyme CcrA from Bacteroides fragilis and class C enzyme AmpC from Enterobacter cloaca were employed in the assay. The enzyme concentrations for TEM-1, Imi-1, CcrA and AmpC were 4.3, 7.1, 1.2 and 2.1 nM, respectively. A wide range of inhibitor concentrations were prepared in 50 mM PO4, pH 7.0 to include the possible IC50 values. The substrate used to initiate the enzyme reaction was nitrocefin at 50 μg/ml in the same buffer as the inhibitor. Initially the enzyme and inhibitor (20 μl each) were preincubated for 10 minutes at 25° C. prior to the addition of 160 μl volume of nitrocefin. Initial rates of hydrolysis were monitored for 5 minutes at 495 nm using a Molecular Devices Spectra Max 250 with kinetic protocol of SoftMax Program. Readings from the Spectra Max 250 were exported and transferred to Microsoft Excel. The percent of inhibition of each inhibitor concentration was calculated based on the control enzyme activity. The inhibitor concentration that caused a 50% reduction in the enzymatic activity (IC50) was determined graphically.

[2] = biological target: class A β-lactamase TEM-1 (Escherichia coli, UniProt P62593); experiment: IC50 determination, β-lactamase inhibition (nitrocefin, spectrophotometric); type: biochemical, E. coli; conditions: enzyme 4.3 nM; 10 minutes preincubation at 25° C.; nitrocefin 50 μg/ml; pH 7.0
Procedure: as §1, §2

[3] = biological target: class B enzyme CcrA (Bacteroides fragilis, UniProt P25910); experiment: as above; type: biochemical
Procedure: as §1, §2

[4] = biological target: class A β-lactamase Imi-1 (Enterobacter cloacae, UniProt Q46991); experiment: as above; type: biochemical
Procedure: as §1, §2

[5] = test system: Clinical isolates that have been adapted to cause infection in mice; experiment: In vivo antibacterial protection, 7 day survival of infected mice; parameters: species or system mice strain CD-1
Excerpt: In Vivo Antibacterial Protection
Female mice strain CD-1, approximately 18-22 grams, were received from Charles River Laboratories and quarantined 7 days prior to use. In addition, mice may be rendered neutropenic using cytoxan.
Clinical isolates that have been adapted to cause infection in mice, are used in the experiment, including infections with strains of E. coli, K. pneumoniae, M. morganii, E. cloacae, S. marcescens, C. freundii, staphylococci, streptococci, P. aeruginosa and N. gonorrhoeae.
Mice are challenged by injecting 0.5 ml intraperitoneally or 0.05 ml intranasally of a predetermined bacterial inoculum suspended in broth, saline or hog gastric mucin (supplemented with dried bovine hemoglobin for N. gonorrhoeae). […] Antibacterial doses (dose concentration prepared by two fold serial dilutions of the antibiotic) are dissolved or suspended in 0.2% aqueous agar or methocel, phosphate buffered saline or an adjuvant are administered orally, subcutaneously or intravenously in the following manner: • a) Orally or subcutaneously: Dose volume of 0.5 ml administered ½ hr after infection. A second dose may be administered 3 hr. after infection for treatment of infections with more virulent organisms. • b) Intravenously: Dose volume of 0.2 ml, administered ½ hr. after infection. For the treatment of infections with more virulent organisms, more doses, up to 48 hr may be administered. (Intravenous dosing will not exceed 3 doses/24 hr period.) • c) Oral pretreatment: Under special circumstances, the pH of the stomach needs to be adjusted in order to increase the gastric stability of the antibiotic. For this purpose, 0.5 ml of phosphate buffered saline (pH7.8, 0.06M) (or specific approved adjuvant) is administered orally ½ hr after infection, followed 5 minutes later by 0.5 ml of antibiotic (also orally) contained in phosphate buffered saline (pH7.8, 0.06M). Animal Species
A detailed explanation as to the number of animals needed for the determination of in vivo efficacy follows: • A) Novel antibiotics are tested at 5 different dose levels with 5 mice per dose level at each of three routes of administration (oral, subcutaneous and intravenous). […] This would require 25 mice/route with 3 routes/antibiotic or 75 mice per novel compound tested. One to two novel antibiotics will be tested per experiment (75-150 mice) • B) The effectiveness of the new compound must be compared to that of a standard, or antibiotic of known effectiveness. Known or previously tested antibiotics are tested at 5 dose levels with 5 mice per dose level by a single route of administration, for a total of 25 mice/antibiotic. Usually 3-6 antibiotics will be tested per experiment. (75-150 mice). • C) Untreated controls—In each of the above tests, untreated animals are infected with 3 different concentrations of bacterial inoculum with 10 mice per concentration (30 mice total in each and every test). These untreated controls are used to determine and maintain the infection level between 10-100 LD50s as required for test to test comparison and validity. Determination of Protective Effects of Antibacterial Agents:
The protective effects of the antibacterial agent(s) are measured by the survival of the infected untreated as compared to the treated animals. […] A census of survivors is taken twice daily and at that time dead as well as moribund animals are removed. […] The test is performed three times on separate days to provide a statistically valid number of animals and to minimize variation in test results on a day to day and test to test basis.

[6] = enzyme 2.1 nM, 10 minutes preincubation at 25° C., nitrocefin 50 μg/ml, pH 7.0, read-out: IC50 (nM) Class C AmpC
[7] = enzyme 1.2 nM, 10 minutes preincubation at 25° C., nitrocefin 50 μg/ml, pH 7.0, read-out: IC50 (nM) Class B Ccr
[8] = enzyme 7.1 nM, 10 minutes preincubation at 25° C., nitrocefin 50 μg/ml, pH 7.0, read-out: IC50 (nM) Class A Imi
[9] = Mus musculus, 168 h, Ratio of Piperacillin vs. Inhibitor not given, read-out: ED50
[10] = Mus musculus, 168 h, Ratio of Piperacillin vs. Inhibitor 4:1, read-out: ED50

Sequence of class A β-lactamase TEM-1 (P62593 24-286 limits assumed): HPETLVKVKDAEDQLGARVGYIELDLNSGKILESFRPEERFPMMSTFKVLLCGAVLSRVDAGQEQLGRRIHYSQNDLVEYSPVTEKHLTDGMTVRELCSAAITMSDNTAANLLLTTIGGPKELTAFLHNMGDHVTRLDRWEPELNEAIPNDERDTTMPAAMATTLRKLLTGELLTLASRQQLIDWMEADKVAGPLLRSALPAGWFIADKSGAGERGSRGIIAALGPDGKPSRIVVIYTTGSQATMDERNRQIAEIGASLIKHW
Sequence of class A β-lactamase Imi-1 (Q46991 28-292): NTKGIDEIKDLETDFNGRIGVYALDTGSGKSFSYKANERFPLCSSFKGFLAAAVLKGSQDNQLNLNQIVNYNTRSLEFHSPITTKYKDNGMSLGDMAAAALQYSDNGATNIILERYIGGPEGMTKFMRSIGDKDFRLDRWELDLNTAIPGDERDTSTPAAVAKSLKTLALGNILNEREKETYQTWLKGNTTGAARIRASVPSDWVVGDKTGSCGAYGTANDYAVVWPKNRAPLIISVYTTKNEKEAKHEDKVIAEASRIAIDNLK
Sequence of class B enzyme CcrA (P25910 19-249): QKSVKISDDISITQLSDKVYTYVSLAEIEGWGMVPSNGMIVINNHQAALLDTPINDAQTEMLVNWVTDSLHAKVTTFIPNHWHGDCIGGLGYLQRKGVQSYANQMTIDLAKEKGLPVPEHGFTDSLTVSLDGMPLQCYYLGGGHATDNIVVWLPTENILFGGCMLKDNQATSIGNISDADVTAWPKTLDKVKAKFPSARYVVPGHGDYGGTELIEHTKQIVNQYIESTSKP
Sequence of class C enzyme AmpC (P05364 21-381): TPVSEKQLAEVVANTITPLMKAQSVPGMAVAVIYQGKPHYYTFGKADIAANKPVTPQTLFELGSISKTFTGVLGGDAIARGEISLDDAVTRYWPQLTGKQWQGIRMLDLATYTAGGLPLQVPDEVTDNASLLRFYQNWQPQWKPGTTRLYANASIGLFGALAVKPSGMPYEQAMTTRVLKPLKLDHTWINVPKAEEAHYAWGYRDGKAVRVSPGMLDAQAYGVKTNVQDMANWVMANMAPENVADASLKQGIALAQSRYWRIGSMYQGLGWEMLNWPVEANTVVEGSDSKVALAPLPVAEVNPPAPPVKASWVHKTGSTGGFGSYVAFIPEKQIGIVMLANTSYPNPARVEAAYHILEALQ

SMILES | IC50 [1, 6] | melting point | IC50 [2] | IC50 [3, 7] | IC50 [4, 8] | ED50 ([5]; Mus musculus, 168 h, Ratio of Piperacillin vs. Inhibitor 2:1, read-out: ED50) | ED50 [5, 9] | IC50 [3] | IC50 [1] | ED50 [5, 10] | IC50 ([1]; read-out: IC50 (nM) Class C AmpC, pH 7) | ED50 ([5]; Ratio of Piperacillin vs. Inhibitor not given) | IC50 [4]
O=C(O)C1=CS[C@@H]2/C(=C\c3cc4c(s3)CCN(Cc3ccccc3)C4)C(=O)N12 [Example 1, (5R,6Z)-6-[(5-benzyl-4,5,6,7-tetrahydrothieno[3,2-c]pyridin-2-yl)methylene]-7oxo-4-thia-1-azabicyclo[3.2.0]hept-2-ene-2-carboxylic acid] | 12 nM | 198 °C | 4.2 nM | 260 nM | 2.1 nM | 32 to 64 mg/kg | – | – | – | – | – | – | –
CN1Cc2nc(/C=C3/C(=O)N4C(C(=O)O)=CS[C@H]34)cn2CC1=O (as salt: sodium) [Example 10, (5R),(6Z)-6-(7-Methyl-6-oxo-5,6,7,8-tetrahydro-imidazo[1,2-a]pyrazin-2-ylmethylene)-7-oxo-4-thia-1-aza-bicyclo[3.2.0]hept-2-ene-2-carboxylic acid sodium salt] | – | 115 to 117 °C (dec.) | – | – | – | – | – | – | – | – | – | – | –
O=C(O)C1=CS[C@@H]2/C(=C\c3cc4n(n3)CCNC4)C(=O)N12 [Example 25, (5R),(6Z)-7-Oxo-6-(4,5,6,7-tetrahydropyrazolo[1,5-a]pyrazin-2-ylmethylene)-4-thia-1-aza-bicyclo[3.2.0]hept-2-ene-2-carboxylic acid, sodium salt] | 2.7 nM | – | 1.1 nM | 162 nM | 123 nM | – | 30 mg/kg | – | – | – | – | – | –
O=C(O)C1=CS[C@@H]2/C(=C\c3cc4n(n3)CCS(=O)(=O)C4)C(=O)N12 [Example 24, (5R),(6Z)-6-(5,5-Dioxo-4,5,6,7-tetrahydro-5λ^6-pyrazolo[5,1-c][1,4]thiazin-2-ylmethylene)-7-oxo-4-thia-1-azabicyclo[3.2.0]hept-2-ene-2-carboxylic acid, sodium salt] | 1.5 nM | – | 1.1 nM | – | 56 nM | – | 64 mg/kg | 4 nM | – | – | – | – | –
O=C(O)C1=CS[C@@H]2/C(=C\c3cc4c(o3)CCC4)C(=O)N12 [Example 27, (5R),(6Z)-6-(5,6-Dihydro-4H-cyclopenta[b]furan-2-ylmethylene)-7-oxo-4-thia-1-azabicyclo[3.2.0]hept-2-ene-2-carboxylic acid, sodium salt] | 2 nM | – | 2 nM | 73 nM | 5.5 nM | – | 28 mg/kg | – | – | – | – | – | –
O=C([O-])C1=CS[C@@H]2/C(=C\c3cc4n(n3)CSC4)C(=O)N12.[Na+] [Example 12, (5R)(6Z)-7-Oxo-6-(4H-5-thia-1,6a-diazapentalen-2-ylmethylene)-4-thia-1-azabicyclo[3.2.0]hept-2-ene-2-carboxylic acid, sodium salt] | – | – | 1.4 nM | 110 nM | 56 nM | – | – | – | 1.5 nM | 20 mg/kg | – | – | –
O=C([O-])C1=CS[C@@H]2/C(=C\c3cc4n(n3)CSC4)C(=O)N12.[Na+] [Example 31, (5R)(6Z)-7-Oxo-6-(4H-5-thia-1,6a-diazapentalen-2-ylmethylene)-4-thia-1-azabicyclo[3.2.0]hept-2-ene-2-carboxylic acid, sodium salt] | – | – | 1.4 nM | 110 nM | 56 nM | – | – | – | – | – | 1.5 nM | 20 mg/kg | –
O=C([O-])C1=CS[C@@H]2/C(=C\c3cc4n(n3)CCO4)C(=O)N12.[Na+] [Example 33, (5R)(6Z)-6-(2,3-Dihydropyrazolo[5,1-b]oxazol-6-ylmethylene)-7-oxo-4-thia-1-azabicyclo[3.2.0]hept-2-ene-2-carboxylic acid, sodium salt] | – | – | 1.1 nM | 41 nM | 59 nM | – | > 64 mg/kg | – | 0.85 nM | – | – | – | –
O=C([O-])C1=CS[C@@H]2/C(=C\c3cc4n(n3)CCCC4)C(=O)N12.[Na+] [Example 9, (5R)(6Z)-7-Oxo-6-(4,5,6,7-tetrahydropyrazolo[1,5-a]pyridin-2-ylmethylene)-4-thia-1-azabicyclo[3.2.0]hept-2-ene-2-carboxylic acid, sodium salt] | – | – | 2.2 nM | 62 nM | – | – | – | – | 3.2 nM | 31.3 mg/kg | – | – | 90 nM
CN1CCc2sc(C=C3C(=O)N4C(C(=O)O)=CSC34)cc2C1 (stereo not shown) [Example 17, 6-(5-Methyl-4,5,6,7-tetrahydro-thieno[3,2-c]pyridin-2-ylmethylene)-7-oxo-4-thia-1-aza-bicyclo[3.2.0]hept-2-ene-2-carboxylic acid] | 26 nM | – | 12 nM | 28 nM | 24 nM | – | – | – | – | 37.9 mg/kg | – | – | –
O=C(O)C1=CSC2C(=Cc3cn4c(n3)CCCCC4)C(=O)N12 (stereo not shown) [Example 19, 7-Oxo-6-(6,7,8,9-tetrahydro-5H-imidazo[1,2-a]azepin-2-ylmethylene)-4-thia-1-aza-bicyclo[3.2.0]hept-2-ene-2-carboxylic acid] | 4.6 nM | – | 4.8 nM | 170 nM | 2700 nM | – | – | – | – | 59.2 mg/kg | – | – | –
O=C(O)C1=CS[C@@H]2/C(=C\c3cc4n(n3)CCOC4)C(=O)N12 [Example 35, (5R,6Z)-6-(6,7-dihydro-4H-pyrazolo[5,1-c][1,4]oxazin-2-ylmethylene)-7-oxo-4-thia-1-azabicyclo[3.2.0]hept-2-ene-2-carboxylic acid] | 6.1 nM | – | 4.2 nM | 30 nM | – | – | 19 mg/kg | – | – | – | – | – | 230 nM
O=C([O-])C1=CS[C@@H]2/C(=C\c3cn4c(n3)CSC4)C(=O)N12.[Na+] [Example 13, (5R)(6Z)-6-(7H-Imidazo[1,2-c]thiazol-2-ylmethylene)-7-oxo-4-thia-1-azabicyclo[3.2.0]hept-2-ene-2-carboxylic acid, sodium salt] | – | – | 2.9 nM | 160 nM | 16 nM | – | 18 mg/kg | – | 3.1 nM | – | – | – | –
O=C(O)C1=CS[C@@H]2/C(=C\c3cn4c(n3)CNCC4)C(=O)N12 [Example 3, (5R),(6Z)-7-Oxo-6-(5,6,7,8-tetrahydroimidazo[1,2-a]pyrazin-2-ylmethylene)-4-thia-1-azabicyclo[3.2.0]hept-2-ene-2-carboxylic acid, sodium salt] | 6.2 nM | – | 5.4 nM | – | – | – | – | 320 nM | – | 16 to 32 mg/kg | – | – | 28 nM

Source: patent publication US7812014B2, “Bicyclic 6-alkylidene-penems as β-lactamase inhibitors” (priority 2002, dated 2010)
